For 9 compounds, TGI and GI50 results are on record in PubChem BioAssay (NCI).

Test systems include MOLT-4 leukemia; U251 CNS; M14 melanoma; HCT-15 colon; NCI-H522 lung; OVCAR-3 ovarian; SN12C renal; HCC-2998 colon; OVCAR-4 ovarian; SF-295 CNS.
Common to all, as to assay: inhibition of tumour cell growth, NCI panel, 48 h

Molecules are shown by their SMILES.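 Compound exposure: 48 hours, 5 concentrations, 96-well plates. Abbreviation: GI50, concentration required for 50% inhibition of growth. TGI: concentration producing complete growth inhibition.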

Turning to `OCC1C(OCc2ccccc2)C(OCc2ccccc2)C(OCc2ccccc2)CN1Cc1ccccc1` (stereo not given), the TGI in the assay with MOLT-4 leukemia, with U251 CNS, in the assay with M14 melanoma, with HCT-15 colon, in the assay on NCI-H522 lung and with OVCAR-3 ovarian was > 100 µM each time. Besides, the TGI with SN12C renal was 39.6 µM; in the assay with HCC-2998 colon, > 100 µM; with OVCAR-4 ovarian, > 100 µM; with SF-295 CNS, > 100 µM.

For the compound `COc1ccc(C2(Cl)c3ccccc3N(c3ccccc3)c3ccccc32)cc1`, the GI50 in the assay on MOLT-4 leukemia is 1.83 µM; with U251 CNS it was 0.0505 µM; in the assay on M14 melanoma it was 0.224 µM; in the assay on HCT-15 colon it was 0.909 µM; in the assay with NCI-H522 lung, 0.444 µM; in the assay on OVCAR-3 ovarian, 0.307 µM. Besides, the GI50 with SN12C renal is 0.232 µM; in the assay on HCC-2998 colon it was 0.357 µM; with OVCAR-4 ovarian, 0.447 µM; with SF-295 CNS it was 0.301 µM. Besides, the TGI is 11 µM in the assay with MOLT-4 leukemia; 1.29 µM in the assay with U251 CNS; 1.38 µM in the assay on M14 melanoma; 10.8 µM in the assay on HCT-15 colon; 2.94 µM with NCI-H522 lung; 1.47 µM in the assay with OVCAR-3 ovarian. Moreover, the TGI came out at 1.22 µM in the assay on SN12C renal, 1.53 µM in the assay on HCC-2998 colon, 2.81 µM in the assay on OVCAR-4 ovarian and 1.85 µM in the assay on SF-295 CNS.

Take `O=C1Nc2c(ccc(Cl)c2Cl)/C1=C/c1cc(Br)c(O)c(Br)c1`: the GI50 in the assay on MOLT-4 leukemia was 4.37 µM; in the assay with U251 CNS it was 6.42 µM; in the assay on M14 melanoma, 3.14 µM; in the assay with HCT-15 colon it was 4.65 µM; with NCI-H522 lung it was 3.06 µM; in the assay on OVCAR-3 ovarian, 3.14 µM. In addition, the GI50 in the assay with SN12C renal was 10.7 µM; with HCC-2998 colon it was 6.59 µM; in the assay on OVCAR-4 ovarian, 5.69 µM; in the assay with SF-295 CNS, 2.71 µM. For the same compound, the TGI in the assay with MOLT-4 leukemia was > 76.4 µM; with U251 CNS, 43.1 µM; in the assay with M14 melanoma it was > 100 µM; in the assay with HCT-15 colon, 35.3 µM; in the assay on NCI-H522 lung, > 28.6 µM; in the assay on OVCAR-3 ovarian, 12 µM. Besides, the TGI was > 100 µM with SN12C renal, 32.5 µM in the assay with HCC-2998 colon, > 100 µM with OVCAR-4 ovarian and 19.8 µM in the assay with SF-295 CNS.

With `Oc1ccc(C=Nc2ccccc2O)cc1`, the TGI in the assay on MOLT-4 leukemia, in the assay with U251 CNS, in the assay with M14 melanoma, in the assay with HCT-15 colon, in the assay on NCI-H522 lung and in the assay with OVCAR-3 ovarian was > 100 µM in each case. Also, the TGI with SN12C renal, with HCC-2998 colon, in the assay with OVCAR-4 ovarian and in the assay on SF-295 CNS was > 100 µM in each case.

Turning to `O=C1C=C(Nc2ccc(Cl)cc2Cl)c2ccccc2C1=O`, the TGI with MOLT-4 leukemia is > 100 µM; in the assay on U251 CNS, > 100 µM; with M14 melanoma it was 57.8 µM; with HCT-15 colon, > 100 µM; with NCI-H522 lung it was > 100 µM; with OVCAR-3 ovarian, > 100 µM. In addition, the TGI with SN12C renal, with HCC-2998 colon, in the assay on OVCAR-4 ovarian and with SF-295 CNS was > 100 µM in each case.

In the case of `COc1cc(/C=C/c2cc(/C=C/c3ccc(O)c(OC)c3)n(C(=O)c3ccc(Cl)cc3)n2)ccc1O`, the GI50 in the assay with MOLT-4 leukemia was 1.64 µM; with U251 CNS, 2.94 µM; in the assay on M14 melanoma, 1.5 µM; in the assay with HCT-15 colon it was 1.54 µM; in the assay with NCI-H522 lung, 0.595 µM; in the assay with OVCAR-3 ovarian it was 2.67 µM. For the same compound, the GI50 in the assay on SN12C renal was 2.35 µM; in the assay with HCC-2998 colon it was 3.94 µM; in the assay with OVCAR-4 ovarian it was 2.02 µM; with SF-295 CNS, 3.13 µM. The TGI in the assay with MOLT-4 leukemia came out at 11.9 µM; with U251 CNS, 11.6 µM; in the assay with M14 melanoma, 15.2 µM; with HCT-15 colon, 26.1 µM; in the assay with NCI-H522 lung it was 4.32 µM; in the assay with OVCAR-3 ovarian, 7.72 µM. Moreover, the TGI worked out at 13 µM in the assay on SN12C renal, 12.8 µM in the assay on HCC-2998 colon, 34.9 µM in the assay on OVCAR-4 ovarian and 12.4 µM in the assay on SF-295 CNS.

On to `COc1cc2c(cc1OC(C)C)[C@H](c1ccc(Cl)cc1)N(c1ccc(N(C)CC3CCC(N4CCN(C)C(=O)C4)CC3)cc1)C(=O)C2` (stereo not given in full), for which the GI50 with MOLT-4 leukemia was 0.363 µM; in the assay on U251 CNS, 3.34 µM; in the assay on M14 melanoma it was 2.72 µM; with HCT-15 colon, 1.95 µM; in the assay with NCI-H522 lung it was 3.9 µM; with OVCAR-3 ovarian, 2.6 µM. In addition, the GI50 is 2.95 µM in the assay with SN12C renal, 2.59 µM in the assay with HCC-2998 colon, 2.99 µM with OVCAR-4 ovarian and 2.16 µM with SF-295 CNS. The TGI in the assay on MOLT-4 leukemia amounted to 5.77 µM; in the assay on U251 CNS, 8.44 µM; in the assay on M14 melanoma, 7.86 µM; in the assay with HCT-15 colon, 5.79 µM; in the assay on NCI-H522 lung, 10.4 µM; in the assay on OVCAR-3 ovarian, 7.07 µM. Besides, the TGI worked out at 9.15 µM in the assay on SN12C renal, 7.07 µM with HCC-2998 colon, 9.85 µM in the assay on OVCAR-4 ovarian and 5.46 µM in the assay on SF-295 CNS.

Regarding `O=C1N[C@@H]2[C@@H](O)[C@@H](O)[C@H](O)C[C@H]2c2cc3c(c(O)c21)OCCO3`, the GI50 with MOLT-4 leukemia is 0.193 µM; with U251 CNS, 0.238 µM; in the assay with M14 melanoma, 0.246 µM; in the assay on HCT-15 colon, 0.27 µM; with NCI-H522 lung, 0.199 µM; in the assay on OVCAR-3 ovarian it was 0.276 µM. Further, the GI50 with SN12C renal was 0.162 µM; in the assay on HCC-2998 colon, 0.227 µM; with OVCAR-4 ovarian, 0.217 µM; with SF-295 CNS, 0.388 µM. Also, the TGI was found to be 3.16 µM in the assay on MOLT-4 leukemia; 8.42 µM in the assay with U251 CNS; 1.04 µM in the assay on M14 melanoma; 1.8 µM in the assay with HCT-15 colon; 0.993 µM in the assay with NCI-H522 lung; 1.01 µM with OVCAR-3 ovarian. In addition, the TGI in the assay on SN12C renal came to 0.978 µM; with HCC-2998 colon, 0.765 µM; in the assay on OVCAR-4 ovarian, 0.838 µM; with SF-295 CNS it was 2.65 µM.

As to `COC(=O)c1cc2c(=O)n(C)c3ccccc3n2c1C(=O)OC`, the TGI with MOLT-4 leukemia is > 100 µM; in the assay with U251 CNS, 58.8 µM; in the assay with M14 melanoma, > 100 µM; in the assay on HCT-15 colon it was > 100 µM; in the assay with NCI-H522 lung it was 73.7 µM; with OVCAR-3 ovarian, > 100 µM. In addition, the TGI in the assay on SN12C renal, with HCC-2998 colon, with OVCAR-4 ovarian and in the assay with SF-295 CNS was > 100 µM each time.
